From paper PMC11061149, “Protein mimetic 2D FAST rescues alpha synuclein aggregation mediated early and post disease Parkinson’s phenotypes” (Nature Communications, 2024)
Values joined by “and” are separate entries in the source; they are usually repeats but may differ in a detail not shown here. Identical values can stand only once.

System: HEK cells stably expressing αS-A53T-YFP
Experiment: HEK cells treated with 5th cycle PMCA samples (ProteoStat, confocal)
Format: cell-based, human
Procedure: To further validate that NS132 generates fiber incompetent structures from the fibers-catalyzed aggregation, we utilized HEK cells that stably express αS-A53T-YFP[24],[51]–[54]. The solutions of αS aggregation in the absence and presence of NS132 from the 5th cycle of PMCA (2 μM in monomeric αS, ±NS132) were introduced to the HEK cells in the presence of Lipofectamine 3000 for 24 h. In contrast to the control (no fibers) (Fig. 3i, control), we observed a significant number of inclusions of αS-A53T-YFP protein in the presence of αS fibers (Fig. 3i, αS, white arrows). […] In contrast, in the presence of the PMCA assay sample from the 5th cycle ( + NS132), there was a significant reduction in the number of αS-A53T-YFP inclusions (Fig. 3i, +NS132). The ProteoStat intensity of inclusions in HEK cells treated with the PMCA sample from cycle five was ~2–3 fold higher than the control condition (no fibers) (Fig. 3j, black). […]
This assay was performed based on a previous protocol with slight modifications. […] The resulting cell pellets were then homogenized, transferred into an autoclaved 1.7 mL microcentrifuge tube, and counted to normalize the data. […] The cell solution was homogenized and equally aliquoted into the desired number of wells in a Costar 96-well flat black plate and fluorescence was measured (λex = 550 nm, λem = 600 nm) on an Infinite M200 Pro Plate Reader. […]

SMILES: Cc1ccc(NC(=O)c2ccc(NC(=O)c3ccc([N+](=O)[O-])c(NCCc4c[nH]c5ccccc45)n3)c(NCC3CCCCC3)n2)c(OCC(=O)O)n1 [NS132]
- ProteoStat dye intensity (raw), individual experiments (HEK cells + fifth cycle PMCA sample (2 μM αS in monomer) with NS132): 1001 and 1176 and 997 and 1009 and 1031 and 978 and 1091 and 1123 and 1010 and 1092 and 1179
- ProteoStat intensity of inclusions, in words (PMCA sample from cycle five in the presence of NS132): significantly lower
